According to patent US10770169B2, “Method of providing a treatment to a subject based on a dynamic pathway map” (THE REGENTS OF THE UNIVERSITY OF CALIFORNIA, priority 2010, dated 2020):
Read-outs that look alike come from different tables or passages of the source.

How the values were obtained:
[1] = test system: panel of 55 breast cancer cell lines; test: Cell growth inhibition assay (Cell Titer Glo, 72 h, 9 doses; GI50, TGI, LC50); assay type: cell-based, human; settings: Homo sapiens, read-out: GI50 (converted)
[2] = test system: luminal, basal, claudin-low and ERBB2AMP breast cancer cell lines; test: Associations of clinically relevant subtypes and response (non-parametric ANOVA or t-test on GI50 ranks); assay type: cell-based, human; settings: Table 6; most sensitive subtype, FDR p<0.20
Summary of the method: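 Significance was set at FDR p<0.20 after combining p-values across three test sets. Subtype–response associations came from rank-based non-parametric ANOVA or t-tests on GI50. For three-class comparisons, post-hoc tests of each group against the rest identified the most sensitive group, with FDR correction.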

CO[C@H]1C[C@@H]2CC[C@@H](C)[C@@](O)(O2)C(=O)C(=O)N2CCCC[C@H]2C(=O)O[C@H]([C@H](C)C[C@@H]2CC[C@@H](OC(=O)C(C)(CO)CO)[C@H](OC)C2)CC(=O)[C@H](C)/C=C(\C)[C@@H](O)[C@@H](OC)C(=O)[C@H](C)C[C@H](C)/C=C/C=C/C=C/1C [Temsirolimus]
GI50 ([1]; 600MPE cell line, censored GI50 values): 18200 nM | GI50 ([1]; AU565, AU565 cell line, censored GI50 values): 100 nM | GI50 ([1]; AU565, cell line AU565): 100 nM | GI50 ([1]; BT-20, BT20 cell line, censored GI50 values): 776 nM | GI50 ([1]; BT-20, cell line BT20): 776 nM | GI50 ([1]; BT-474, BT474 cell line, censored GI50 values): 13.5 nM | GI50 ([1]; BT-474, cell line BT474): 13.5 nM | GI50 ([1]; BT-483, BT483 cell line, censored GI50 values): 66100 nM | GI50 ([1]; BT-483, cell line BT483): 66100 nM | GI50 ([1]; CAMA-1, CAMA1 cell line, censored GI50 values): 43.7 nM | GI50 ([1]; CAMA-1, cell line CAMA1): 43.7 nM | GI50 ([1]; HCC38, HCC38 cell line, censored GI50 values): 389 nM | GI50 ([1]; HCC38, cell line HCC38): 389 nM | GI50 ([1]; HCC70, HCC70 cell line, censored GI50 values): 407 nM | GI50 ([1]; HCC70, cell line HCC70): 407 nM | GI50 ([1]; HCC1143, HCC1143 cell line, censored GI50 values): 1580 nM | GI50 ([1]; HCC1143, cell line HCC1143): 1580 nM | GI50 ([1]; HCC1187, HCC1187 cell line, censored GI50 values): 794 nM | GI50 ([1]; HCC1187, cell line HCC1187): 794 nM | GI50 ([1]; HCC1395, HCC1395 cell line, censored GI50 values): 12600 nM | GI50 ([1]; HCC1395, cell line HCC1395): 12600 nM | GI50 ([1]; HCC1419, HCC1419 cell line, censored GI50 values): 52.5 nM | GI50 ([1]; HCC1419, cell line HCC1419): 52.5 nM | GI50 ([1]; HCC1428, HCC1428 cell line, censored GI50 values): 6170 nM | GI50 ([1]; HCC1428, cell line HCC1428): 6170 nM | GI50 ([1]; HCC1500, HCC1500 cell line, censored GI50 values): 24500 nM | GI50 ([1]; HCC1500, cell line HCC1500): 24500 nM | GI50 ([1]; HCC1806, HCC1806 cell line, censored GI50 values): 20400 nM | GI50 ([1]; HCC1806, cell line HCC1806): 20400 nM | GI50 ([1]; HCC1937, HCC1937 cell line, censored GI50 values): 437 nM | GI50 ([1]; HCC1937, cell line HCC1937): 437 nM | GI50 ([1]; HCC1954, HCC1954 cell line, censored GI50 values): 219 nM | GI50 ([1]; HCC1954, cell line HCC1954): 219 nM | GI50 ([1]; HCC2185 cell line, censored GI50 values): 13.2 nM | GI50 ([1]; HCC3153 cell line, censored GI50 values): 20000 nM | GI50 ([1]; LY2 cell line, censored GI50 values): 209 nM | GI50 ([1]; MCF7, MCF7 cell line, censored GI50 values): 1550 nM | GI50 ([1]; MCF7, cell line MCF7): 1550 nM | GI50 ([1]; MDA-MB-134-VI, MDAMB134VI cell line, censored GI50 values): 166 nM | GI50 ([1]; MDA-MB-175-VII, MDAMB175VII cell line, censored GI50 values): 2290 nM | GI50 ([1]; MDA-MB-361, MDAMB361 cell line, censored GI50 values): 251 nM | GI50 ([1]; MDA-MB-415, MDAMB415 cell line, censored GI50 values): 75.9 nM | GI50 ([1]; MDA-MB-436, MDAMB436 cell line, censored GI50 values): 53700 nM | GI50 ([1]; MDA-MB-453, MDAMB453 cell line, censored GI50 values): 100 nM | GI50 ([1]; MDA-MB-468, MDAMB468 cell line, censored GI50 values): 5620 nM | GI50 ([1]; SK-BR-3, SKBR3 cell line, censored GI50 values): 53.7 nM | GI50 ([1]; SUM52PE, SUM52PE cell line, censored GI50 values): 0.417 nM | GI50 ([1]; SUM149PT, SUM149PT cell line, censored GI50 values): 6170 nM | GI50 ([1]; SUM185PE, SUM185PE cell line, censored GI50 values): 1.1 nM | GI50 ([1]; SUM1315MO2, SUM1315MO2 cell line, censored GI50 values): 1120 nM | GI50 ([1]; SUM-159-PT, SUM159PT cell line, censored GI50 values): 229 nM | GI50 ([1]; T47D, T47D cell line, censored GI50 values): 1410 nM | GI50 ([1]; UACC-812, UACC812 cell line, censored GI50 values): 575 nM | GI50 ([1]; ZR-75-1, ZR751 cell line, censored GI50 values): 66100 nM | GI50 ([1]; ZR-75B, ZR75B cell line, censored GI50 values): 107 nM | GI50 ([1]; cell line 600MPE): 18200 nM | GI50 ([1]; cell line HCC2185): 13.2 nM | GI50 ([1]; cell line HCC3153): 20000 nM | GI50 ([1]; cell line LY2): 209 nM | Subtype specificity [2]: Luminal/ERBB2AMP
